Experimental data from patent publication US4230719A, “Novel 2-[4-(3-methyl-2-thienyl)phenyl]propionic acid and pharmaceutically acceptable salt thereof and method for treating symptoms of inflammation and pain” (Toyama Chemical Co., Ltd., priority 1977, dated 1980).
Like-named read-outs stand apart in the source and are kept apart here.

Assays:
[1] = system: threshold value of pain due to pressure stimuli (tail); settings: for Analgesic effect: 100% = threshold raised by 160 g
[2] = system: Carrageenin-induced edema; experiment: Carrageenin-induced edema; assay type: in vivo, rat (Donryu strain, male); settings: Rattus norvegicus, po, mean in 5 hours, read-out: Inhibitory percent of swelling; for inhibition in vivo at 5 mg/kg: 5 mg/kg p.o.; for inhibition in vivo at 15 mg/kg: 15 mg/kg p.o.
Procedure: (iii) Carrageenin-induced edema
Each of the 6 Donryu strain male rats per group (each weighing about 140 g), which had been fasted overnight, was orally loaded with 4 ml of water and, after 30 minutes, the test compound was orally administered thereto. Thirty minutes thereafter, a 1%(Wt/V) solution of carrageenin in physiological saline was subcutaneously injected into the subplantar region of the left hind paw. At a time interval of one hour, starting from the end of the first hour till the end of the fifth hour after injection of carrageenin, the paw volume was measured by means of a manometer and pressure transducer. By comparison with the percent increase in swelling of the control group of rats to which a 0.5%(V/V) solution of Tween 80 had been administered, the mean inhibitory percent in 5 hours of swelling was calculated by the following equation: [formula]

in vivo = settings: rat, po
[3] = system: phenylbenzoquinone writhing; experiment: Analgesic activity, phenylbenzoquinone method in mouse; assay type: in vivo, mouse (ddY strain, male); settings: for Frequency of writhing, mean ± S.E.: during 10 minutes; for ED50: mouse, read-out: ED50
Procedure: (i) Phenylbenzoquinone method in mouse
The test compound was orally administered to each ddY strain male mouse (weighing 22±2 g; 8 mice per group). […] The frequency of writhing during 10 minutes from 5-minutes after the injection of phenylbenzoquinone was measured and compared with that of a control group to which a 0.5% Tween 80 solution was administered. The percent inhibition was calculated by the following equation: [formula]

Vascular permeability = Vascular permeability in mice (Whittle's method); assay type: in vivo, mouse (ddY strain, male); settings: for Inhibition: dye leakage
Procedure: (i) Vascular permeability in mice (Whittle's method)
The test compound was orally administered to each ddY strain male mouse (weighing each about 20 g). After 20 minutes, 0.1 ml/10 g of a 4%(Wt/V) solution of Pontamine Sky Blue in physiological saline was intravenously injected and 10 minutes thereafter 0.1 ml/10 g of a 0.7%(V/V) solution of acetic acid in physiological saline was injected intraperitoneally. After 30 minutes, the mice were killed by suffocation with chloroform. After immediate laparotomy, the dye leaked into the peritoneal cavity was washed out with distilled water. The washings were made up with water to 30 ml and the absorbance at 620 mμ was measured. The amount of leaked dye per 20 g of mouse weight was compared.

[4] = Mus musculus, po, 10 min, writhing, 40 mg/kg p.o.

Structure (SMILES) | inhibition in vivo at 5 mg/kg [2] [%] | Frequency of writhing, mean ± S.E. ([3]; 40 mg/kg p.o.) | inhibition in vivo at 40 mg/kg [3, 4] [%] | ED50 ([3]; po) [mg/kg] | inhibition in vivo at 15 mg/kg [2] [%] | further results
CC(=O)Oc1ccccc1C(=O)O [Aspirin] | – | – | – | – | – | Analgesic effect ([1]; 200 mg/kg p.o.): 25%; Analgesic effect ([1]; 800 mg/kg p.o.): 53%; ED50 ([1]; Mus musculus, po): 710 mg/kg
CCc1ccsc1-c1ccc(C(C)C(=O)O)cc1 (stereo not shown) [Compound C1] | 9.3 | 23.1 ± 3.9 | 2.1 | > 50 | – | LD50 (in vivo): > 400 mg/kg; Frequency of writhing, mean ± S.E. ([3]; 10 mg/kg p.o.): 23.6 ± 5.0; Frequency of writhing, mean ± S.E. ([3]; 20 mg/kg p.o.): 23.7 ± 4.4; inhibition in vivo at 10 mg/kg ([3]; Mus musculus, po, 10 min, writhing, 10 mg/kg p.o., read-out: Inhibition): 0%; inhibition in vivo at 20 mg/kg ([3]; Mus musculus, po, 10 min, writhing, 20 mg/kg p.o., read-out: Inhibition): -0.4%; Dye leakage (P.S.B.) mean ± S.E. (Vascular permeability; 10 mg/kg p.o.): 316.9 ± 29.0 μg/20g; Dye leakage (P.S.B.) mean ± S.E. (Vascular permeability; 20 mg/kg p.o.): 245.9 ± 15.4 μg/20g; Inhibition (Vascular permeability; 10 mg/kg p.o.): 18.0%; Inhibition (Vascular permeability; 20 mg/kg p.o.): 36.4%; ED30 (Vascular permeability; po, mouse, read-out: ED30): 16 mg/kg
CCCc1ccsc1-c1ccc(C(C)C(=O)O)cc1 (stereo not shown) [Compound C4] | -7.2 | 24.0 ± 2.6 | -1.7 | > 50 | -2.7 | –
Cc1csc(-c2ccc(C(C)C(=O)O)cc2)c1 (stereo not shown) [Compound C5] | – | 23.4 ± 1.9 | 0.8 | > 50 | – | inhibition in vivo at 3 mg/kg ([2]; 3 mg/kg p.o.): -25.7%; inhibition in vivo at 10 mg/kg ([2]; 10 mg/kg p.o.): 0.7%
Cc1ccc(-c2ccc(C(C)C(=O)O)cc2)s1 (stereo not shown) [Compound C6] | 19.1 | 18.2 ± 2.8 | 22.9 | > 50 | 31.4 | –
Cc1cc(-c2ccc(C(C)C(=O)O)cc2)sc1C (stereo not shown) [Compound C7] | -21.6 | 19.1 ± 3.8 | 19.1 | > 50 | 15.1 | –
